Measurements from article PMC11480411, “Mucosal sugars delineate pyrazine vs pyrazinone autoinducer signaling in Klebsiella oxytoca” (Nature Communications, 2024).

Tests used:
Test in all cases: PRESTO-Tango GPCR screen
Format in all cases: cell-based
Conditions in all cases: 100 µM
GPR97 = molecular target: T1, GPR97 (Homo sapiens, UniProt Q86Y34)
T1 construct: purchased PRESTO-Tango GPCR kit (Roth lab / Addgene)
Description: (§1) The PRESTO-Tango analyses were performed as previously published. Briefly, HTLA cells, a HEK293 cell line that stably expresses β-arrestin-TEV and tTA-Luciferase (a kind gift from Gilad Barnea, Brown University), were plated in 96-well tissue culture plates (Eppendorf) in DMEM containing 10% FBS and 1% Penicillin/Streptomycin. One day after plating (after reaching approximately 90% confluence), 200 ng per well GPCR-Tango plasmids[37] in 20 μL DMEM were individually mixed with 400 ng polyethylenimine (Polysciences) in an equal volume of DMEM and incubated for 20 min at room temperature before adding the transfection mixture to the HTLA cells. 16-24 h after transfection, medium was replaced with 180 μL fresh DMEM containing 1% Penicillin/Streptomycin and 10 mM HEPES and 20 μL of 3 or 3-Homo to reach a final concentration of 100 μM. Supernatants were aspirated 20 h after stimulation and 50 μl per well of Bright-Glo solution (Promega) diluted 20-fold with PBS containing 20 mM HEPES was added into each well. After 15 min incubation at room temperature, luminescence was quantified using a Spectramax i3x microplate reader (Molecular Devices). Activation fold for each sample was calculated by dividing relative luminescence units (RLU) for each condition by RLUs from PBS control. Dose response curves of each chemical were performed in a similar way with varying the ligand concentration from 10^−4 M to 10^−15 M.

DRD3 = molecular target: T2, DRD3 (Homo sapiens, UniProt P35462)
T2 construct: purchased PRESTO-Tango GPCR kit (Roth lab / Addgene)
Description: as §1

CX3C1 = molecular target: T3, CX3C1 (Homo sapiens, UniProt P49238)
T3 construct: purchased PRESTO-Tango GPCR kit (Roth lab / Addgene)
Description: as §1

OPRL1 = molecular target: T4, OPRL1 (Homo sapiens, UniProt P41146)
T4 construct: purchased PRESTO-Tango GPCR kit (Roth lab / Addgene)
T4 sequence (P41146 whole entry): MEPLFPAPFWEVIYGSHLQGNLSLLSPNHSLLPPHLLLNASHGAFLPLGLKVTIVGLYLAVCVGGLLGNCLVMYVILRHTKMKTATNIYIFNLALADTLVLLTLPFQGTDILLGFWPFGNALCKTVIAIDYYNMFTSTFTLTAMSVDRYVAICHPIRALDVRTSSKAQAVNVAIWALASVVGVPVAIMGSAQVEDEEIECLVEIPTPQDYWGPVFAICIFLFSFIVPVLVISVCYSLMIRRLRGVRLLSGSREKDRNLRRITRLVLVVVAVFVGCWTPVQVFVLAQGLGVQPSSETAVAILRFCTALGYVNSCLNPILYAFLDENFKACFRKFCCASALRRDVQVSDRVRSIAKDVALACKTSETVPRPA
Description: as §1

MCHR2 = molecular target: T5, MCHR2 (Homo sapiens, UniProt Q969V1)
T5 construct: purchased PRESTO-Tango GPCR kit (Roth lab / Addgene)
Description: as §1

NPFF2 = molecular target: T6, NPFF2 (Homo sapiens, UniProt Q9Y5X5)
T6 construct: purchased PRESTO-Tango GPCR kit (Roth lab / Addgene)
Description: as §1

GPR20 = molecular target: T7, GPR20 (Homo sapiens, UniProt Q99678)
T7 construct: purchased PRESTO-Tango GPCR kit (Roth lab / Addgene)
T7 sequence (Q99678 whole entry): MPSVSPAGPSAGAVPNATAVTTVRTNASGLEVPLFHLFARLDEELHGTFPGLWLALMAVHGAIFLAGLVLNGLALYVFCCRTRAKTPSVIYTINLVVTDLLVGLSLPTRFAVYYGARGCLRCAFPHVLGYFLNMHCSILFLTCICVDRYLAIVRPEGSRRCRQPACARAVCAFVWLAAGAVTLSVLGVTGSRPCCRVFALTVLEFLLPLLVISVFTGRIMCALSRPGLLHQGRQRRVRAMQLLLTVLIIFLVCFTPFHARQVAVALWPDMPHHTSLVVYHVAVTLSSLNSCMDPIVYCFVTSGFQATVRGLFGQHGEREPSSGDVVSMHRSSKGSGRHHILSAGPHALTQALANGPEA
Description: as §1

GCGR = molecular target: T8, GCGR (Homo sapiens, UniProt P47871)
T8 construct: purchased PRESTO-Tango GPCR kit (Roth lab / Addgene)
T8 sequence (P47871 26-477): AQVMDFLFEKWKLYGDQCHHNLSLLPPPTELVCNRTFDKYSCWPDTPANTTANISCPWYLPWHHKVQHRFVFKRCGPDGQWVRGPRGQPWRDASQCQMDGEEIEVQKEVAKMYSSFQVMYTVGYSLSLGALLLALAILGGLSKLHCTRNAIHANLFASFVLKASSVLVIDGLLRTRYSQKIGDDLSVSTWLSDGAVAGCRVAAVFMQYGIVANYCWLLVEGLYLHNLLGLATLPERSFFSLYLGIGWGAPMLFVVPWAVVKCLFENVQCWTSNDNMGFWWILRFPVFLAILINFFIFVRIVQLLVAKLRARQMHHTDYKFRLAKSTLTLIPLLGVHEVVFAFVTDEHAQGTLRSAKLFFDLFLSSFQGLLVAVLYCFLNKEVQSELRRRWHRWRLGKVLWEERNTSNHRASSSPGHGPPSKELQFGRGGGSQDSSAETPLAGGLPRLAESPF
Description: as §1

AVPR2 = molecular target: T9, AVPR2 (Homo sapiens, UniProt P30518)
T9 construct: purchased PRESTO-Tango GPCR kit (Roth lab / Addgene)
T9 sequence (P30518 whole entry): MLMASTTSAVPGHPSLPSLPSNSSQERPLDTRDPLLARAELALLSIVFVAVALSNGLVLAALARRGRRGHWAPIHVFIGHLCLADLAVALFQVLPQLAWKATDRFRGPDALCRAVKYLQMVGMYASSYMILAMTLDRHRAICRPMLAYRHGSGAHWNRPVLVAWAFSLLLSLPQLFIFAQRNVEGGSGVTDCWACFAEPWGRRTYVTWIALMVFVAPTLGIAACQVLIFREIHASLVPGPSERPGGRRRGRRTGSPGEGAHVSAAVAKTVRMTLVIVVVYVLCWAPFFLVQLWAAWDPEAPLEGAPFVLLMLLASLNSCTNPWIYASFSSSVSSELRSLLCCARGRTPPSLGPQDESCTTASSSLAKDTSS
Description: as §1

FFA1 = molecular target: T10, FFA1 (Homo sapiens, UniProt O14842)
T10 construct: purchased PRESTO-Tango GPCR kit (Roth lab / Addgene)
Description: as §1

CRHR1 = molecular target: T11, CRHR1 (Homo sapiens, UniProt P34998)
T11 construct: purchased PRESTO-Tango GPCR kit (Roth lab / Addgene)
T11 sequence (P34998 24-415): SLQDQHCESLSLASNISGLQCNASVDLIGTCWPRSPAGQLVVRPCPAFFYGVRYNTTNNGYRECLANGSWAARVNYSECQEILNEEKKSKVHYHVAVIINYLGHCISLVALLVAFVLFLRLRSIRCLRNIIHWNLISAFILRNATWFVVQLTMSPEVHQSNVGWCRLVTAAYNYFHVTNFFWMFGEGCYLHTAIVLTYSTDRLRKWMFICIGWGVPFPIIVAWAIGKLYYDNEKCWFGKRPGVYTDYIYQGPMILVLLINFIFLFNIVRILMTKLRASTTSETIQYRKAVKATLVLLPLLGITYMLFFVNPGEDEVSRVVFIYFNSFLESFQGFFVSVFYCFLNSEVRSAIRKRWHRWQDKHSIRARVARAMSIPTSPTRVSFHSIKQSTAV
Description: as §1

ADRA1A = molecular target: T12, ADRA1A (Homo sapiens, UniProt P35348)
T12 construct: purchased PRESTO-Tango GPCR kit (Roth lab / Addgene)
Description: as §1

GPR143 = molecular target: T13, GPR143 (Homo sapiens, UniProt P51810)
T13 construct: purchased PRESTO-Tango GPCR kit (Roth lab / Addgene)
Description: as §1

P2RY6 = molecular target: T14, P2RY6 (Homo sapiens, UniProt Q15077)
T14 construct: purchased PRESTO-Tango GPCR kit (Roth lab / Addgene)
T14 sequence (Q15077 whole entry): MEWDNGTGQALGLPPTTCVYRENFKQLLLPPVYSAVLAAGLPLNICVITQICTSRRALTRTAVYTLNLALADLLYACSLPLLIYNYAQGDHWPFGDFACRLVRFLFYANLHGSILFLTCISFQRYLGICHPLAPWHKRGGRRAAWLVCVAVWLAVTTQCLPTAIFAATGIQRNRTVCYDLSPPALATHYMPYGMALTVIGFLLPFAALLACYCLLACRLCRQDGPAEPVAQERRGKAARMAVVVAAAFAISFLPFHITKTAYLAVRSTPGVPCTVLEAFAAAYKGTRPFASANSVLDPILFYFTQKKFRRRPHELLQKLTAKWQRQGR
Description: as §1

MRGPRX4 = molecular target: T15, MRGPRX4 (Homo sapiens, UniProt Q96LA9)
T15 construct: purchased PRESTO-Tango GPCR kit (Roth lab / Addgene)
Description: as §1

NPBW1 = molecular target: T16, NPBW1 (Homo sapiens, UniProt P48145)
T16 construct: purchased PRESTO-Tango GPCR kit (Roth lab / Addgene)
Description: as §1

GPR132 = molecular target: T17, GPR132 (Homo sapiens, UniProt Q9UNW8)
T17 construct: purchased PRESTO-Tango GPCR kit (Roth lab / Addgene)
T17 sequence (Q9UNW8 whole entry): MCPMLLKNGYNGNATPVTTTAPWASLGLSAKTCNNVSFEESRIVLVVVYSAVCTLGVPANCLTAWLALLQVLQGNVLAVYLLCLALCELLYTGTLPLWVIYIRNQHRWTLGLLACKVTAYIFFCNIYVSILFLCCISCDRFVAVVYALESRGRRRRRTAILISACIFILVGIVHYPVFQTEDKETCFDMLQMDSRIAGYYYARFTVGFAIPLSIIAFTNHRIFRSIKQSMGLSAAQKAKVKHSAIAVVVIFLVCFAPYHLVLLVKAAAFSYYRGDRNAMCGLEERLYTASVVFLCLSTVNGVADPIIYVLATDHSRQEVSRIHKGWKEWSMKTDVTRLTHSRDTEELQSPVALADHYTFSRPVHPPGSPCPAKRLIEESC
Description: as §1

ADRA2C = molecular target: T18, ADRA2C (Homo sapiens, UniProt P18825)
T18 construct: purchased PRESTO-Tango GPCR kit (Roth lab / Addgene)
Description: as §1

GPR77 = molecular target: T19, GPR77 (Homo sapiens, UniProt Q9P296)
T19 construct: purchased PRESTO-Tango GPCR kit (Roth lab / Addgene)
Description: as §1

GPR27 = molecular target: T20, GPR27 (Homo sapiens, UniProt Q9NS67)
T20 construct: purchased PRESTO-Tango GPCR kit (Roth lab / Addgene)
T20 sequence (Q9NS67 whole entry): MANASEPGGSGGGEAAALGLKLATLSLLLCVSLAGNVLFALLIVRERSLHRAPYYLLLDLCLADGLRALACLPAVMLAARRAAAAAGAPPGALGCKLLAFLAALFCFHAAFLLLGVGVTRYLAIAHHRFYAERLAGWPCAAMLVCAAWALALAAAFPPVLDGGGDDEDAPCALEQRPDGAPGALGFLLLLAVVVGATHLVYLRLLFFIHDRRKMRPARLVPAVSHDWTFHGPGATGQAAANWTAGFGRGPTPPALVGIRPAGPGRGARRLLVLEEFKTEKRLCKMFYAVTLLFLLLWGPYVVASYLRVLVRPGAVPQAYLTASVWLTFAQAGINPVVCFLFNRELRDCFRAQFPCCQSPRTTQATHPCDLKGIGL
Description: as §1

CYSLTR1 = molecular target: T21, CYSLTR1 (Homo sapiens, UniProt Q9Y271)
T21 construct: purchased PRESTO-Tango GPCR kit (Roth lab / Addgene)
Description: as §1

ADORA3 = molecular target: T22, ADORA3 (Homo sapiens, UniProt P0DMS8)
T22 construct: purchased PRESTO-Tango GPCR kit (Roth lab / Addgene)
Description: as §1

GPR124 = molecular target: T23, GPR124 (Homo sapiens, UniProt Q96PE1)
T23 construct: purchased PRESTO-Tango GPCR kit (Roth lab / Addgene)
Description: as §1

HTR1A = molecular target: T24, HTR1A (Homo sapiens, UniProt P08908)
T24 construct: purchased PRESTO-Tango GPCR kit (Roth lab / Addgene)
Description: as §1

GRM8 = molecular target: T25, GRM8 (Homo sapiens, UniProt O00222)
T25 construct: purchased PRESTO-Tango GPCR kit (Roth lab / Addgene)
T25 sequence (O00222 34-908): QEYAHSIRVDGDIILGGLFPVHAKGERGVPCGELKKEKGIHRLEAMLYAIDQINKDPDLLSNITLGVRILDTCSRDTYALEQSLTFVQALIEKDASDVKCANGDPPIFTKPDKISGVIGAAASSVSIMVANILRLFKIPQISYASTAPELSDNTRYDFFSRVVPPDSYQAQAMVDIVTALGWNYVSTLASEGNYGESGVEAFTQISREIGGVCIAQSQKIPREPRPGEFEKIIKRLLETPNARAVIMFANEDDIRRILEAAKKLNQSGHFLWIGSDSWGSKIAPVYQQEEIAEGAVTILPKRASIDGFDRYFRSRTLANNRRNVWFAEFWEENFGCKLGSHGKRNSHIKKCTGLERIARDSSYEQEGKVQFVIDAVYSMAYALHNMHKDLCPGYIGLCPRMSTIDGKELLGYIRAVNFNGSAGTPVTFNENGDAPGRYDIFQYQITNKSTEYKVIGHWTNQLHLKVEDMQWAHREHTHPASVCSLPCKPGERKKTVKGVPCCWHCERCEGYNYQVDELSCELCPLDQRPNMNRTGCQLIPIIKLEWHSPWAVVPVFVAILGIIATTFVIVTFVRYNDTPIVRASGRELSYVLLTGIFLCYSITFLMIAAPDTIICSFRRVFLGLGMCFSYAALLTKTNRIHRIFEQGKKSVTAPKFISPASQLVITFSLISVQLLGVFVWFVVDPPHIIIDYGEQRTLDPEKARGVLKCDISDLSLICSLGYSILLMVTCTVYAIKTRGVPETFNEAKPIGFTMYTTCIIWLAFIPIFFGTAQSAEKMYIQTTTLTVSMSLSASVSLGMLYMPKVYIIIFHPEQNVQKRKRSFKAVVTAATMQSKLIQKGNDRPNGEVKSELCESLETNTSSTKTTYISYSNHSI
Description: as §1

NMUR1 = molecular target: T26, NMUR1 (Homo sapiens, UniProt Q9HB89)
T26 construct: purchased PRESTO-Tango GPCR kit (Roth lab / Addgene)
Description: as §1

VIPR2 = molecular target: T27, VIPR2 (Homo sapiens, UniProt P41587)
T27 construct: purchased PRESTO-Tango GPCR kit (Roth lab / Addgene)
Description: as §1

GPR64 = molecular target: T28, GPR64 (Homo sapiens, UniProt Q8IZP9)
T28 construct: purchased PRESTO-Tango GPCR kit (Roth lab / Addgene)
T28 sequence (Q8IZP9 38-1017): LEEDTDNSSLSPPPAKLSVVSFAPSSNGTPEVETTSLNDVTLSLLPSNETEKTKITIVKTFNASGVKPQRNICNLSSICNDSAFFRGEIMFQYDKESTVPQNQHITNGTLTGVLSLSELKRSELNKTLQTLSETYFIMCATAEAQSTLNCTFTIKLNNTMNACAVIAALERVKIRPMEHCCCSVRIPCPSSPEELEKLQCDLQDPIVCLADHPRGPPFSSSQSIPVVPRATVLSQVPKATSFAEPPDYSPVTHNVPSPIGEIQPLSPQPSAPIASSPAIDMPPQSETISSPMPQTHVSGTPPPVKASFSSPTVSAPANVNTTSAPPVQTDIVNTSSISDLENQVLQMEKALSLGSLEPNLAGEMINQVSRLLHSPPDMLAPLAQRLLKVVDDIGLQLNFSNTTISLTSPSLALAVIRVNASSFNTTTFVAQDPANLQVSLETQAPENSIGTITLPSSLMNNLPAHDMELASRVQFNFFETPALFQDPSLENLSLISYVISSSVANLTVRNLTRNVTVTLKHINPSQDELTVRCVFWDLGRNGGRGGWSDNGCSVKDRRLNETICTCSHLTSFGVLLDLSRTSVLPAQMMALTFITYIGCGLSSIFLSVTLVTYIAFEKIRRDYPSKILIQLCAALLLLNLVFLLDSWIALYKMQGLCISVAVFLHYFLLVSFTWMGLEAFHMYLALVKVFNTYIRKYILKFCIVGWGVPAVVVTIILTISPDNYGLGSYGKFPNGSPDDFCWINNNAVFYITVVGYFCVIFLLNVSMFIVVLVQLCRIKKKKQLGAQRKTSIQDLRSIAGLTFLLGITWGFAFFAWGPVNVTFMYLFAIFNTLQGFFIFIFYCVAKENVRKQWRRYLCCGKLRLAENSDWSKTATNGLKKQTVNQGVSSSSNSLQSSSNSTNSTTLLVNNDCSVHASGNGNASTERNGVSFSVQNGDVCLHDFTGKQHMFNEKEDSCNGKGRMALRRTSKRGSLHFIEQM
Description: as §1

GPR83 = molecular target: T29, GPR83 (Homo sapiens, UniProt Q9NYM4)
T29 construct: purchased PRESTO-Tango GPCR kit (Roth lab / Addgene)
Description: as §1

ADCYAP1R1 = molecular target: T30, ADCYAP1R1 (Homo sapiens, UniProt P41586)
T30 construct: purchased PRESTO-Tango GPCR kit (Roth lab / Addgene)
Description: as §1

SUCNR1 = molecular target: T31, SUCNR1 (Homo sapiens, UniProt Q9BXA5)
T31 construct: purchased PRESTO-Tango GPCR kit (Roth lab / Addgene)
Description: as §1

AVPR1B = molecular target: T32, AVPR1B (Homo sapiens, UniProt P47901)
T32 construct: purchased PRESTO-Tango GPCR kit (Roth lab / Addgene)
Description: as §1

GPR15 = molecular target: T33, GPR15 (Homo sapiens, UniProt P49685)
T33 construct: purchased PRESTO-Tango GPCR kit (Roth lab / Addgene)
Description: as §1

UTS2R = molecular target: T34, UTS2R (Homo sapiens, UniProt Q9UKP6)
T34 construct: purchased PRESTO-Tango GPCR kit (Roth lab / Addgene)
Description: as §1

HCA2 = molecular target: T35, HCA2 (Homo sapiens, UniProt Q8TDS4)
T35 construct: purchased PRESTO-Tango GPCR kit (Roth lab / Addgene)
Description: as §1

SMILES | GPCR activation (heatmap value) (GPR97) | GPCR activation (heatmap value) (DRD3) | GPCR activation (heatmap value) (CX3C1) | GPCR activation (heatmap value) (OPRL1) | GPCR activation (heatmap value) (MCHR2) | GPCR activation (heatmap value) (NPFF2) | GPCR activation (heatmap value) (GPR20) | GPCR activation (heatmap value) (GCGR) | GPCR activation (heatmap value) (AVPR2) | GPCR activation (heatmap value) (FFA1) | GPCR activation (heatmap value) (CRHR1) | GPCR activation (heatmap value) (ADRA1A) | GPCR activation (heatmap value) (GPR143) | GPCR activation (heatmap value) (P2RY6) | GPCR activation (heatmap value) (MRGPRX4) | GPCR activation (heatmap value) (NPBW1) | GPCR activation (heatmap value) (GPR132) | GPCR activation (heatmap value) (ADRA2C) | GPCR activation (heatmap value) (GPR77) | GPCR activation (heatmap value) (GPR27) | further results
CC(C)Cc1ncc(CCCCNC(=N)N)[nH]c1=O [3-Homo] | -0.2469 | 0.04182 | 0.09565 | 0.777 | -0.05748 | -0.3895 | 0.638 | 0.3222 | 0.2692 | -0.171 | 0.4025 | -0.07966 | -0.07136 | -0.2248 | 0.4562 | -0.4089 | 0.4638 | 0.6954 | 0.08307 | -0.5119 | GPCR activation (heatmap value) (CYSLTR1): -0.2334; GPCR activation (heatmap value) (ADORA3): -0.404; GPCR activation (heatmap value) (GPR124): -0.5918; GPCR activation (heatmap value) (HTR1A): -0.3927; GPCR activation (heatmap value) (GRM8): 0.556; GPCR activation (heatmap value) (NMUR1): 0.8213; GPCR activation (heatmap value) (VIPR2): 0.5382; GPCR activation (heatmap value) (GPR64): 0.7434; GPCR activation (heatmap value) (GPR83): 0.2309; GPCR activation (heatmap value) (ADCYAP1R1): 0.1231; GPCR activation (heatmap value) (SUCNR1): -0.1091; GPCR activation (heatmap value) (AVPR1B): -0.01402; GPCR activation (heatmap value) (GPR15): -0.3204; GPCR activation (heatmap value) (UTS2R): -1.423; GPCR activation (heatmap value) (HCA2): 0.4377
CC(C)Cc1ncc(CCCNC(=N)N)[nH]c1=O [compound 3] | -0.1675 | 0.613 | 0.5532 | 0.326 | -1.212 | -0.5121 | 1.634 | 0.3476 | -1.811 | -0.7235 | -0.3752 | -0.2156 | 0.5685 | 0.4506 | 0.07015 | -0.8992 | 0.3578 | 0.2266 | 0.5685 | 0.1426 | GPCR activation (heatmap value) (CYSLTR1): 0.3416; GPCR activation (heatmap value) (ADORA3): -0.3342; GPCR activation (heatmap value) (GPR124): 0.8185; GPCR activation (heatmap value) (HTR1A): -0.02258; GPCR activation (heatmap value) (GRM8): -0.7817; GPCR activation (heatmap value) (NMUR1): -0.191; GPCR activation (heatmap value) (VIPR2): -0.5721; GPCR activation (heatmap value) (GPR64): 0.632; GPCR activation (heatmap value) (GPR83): -0.04196; GPCR activation (heatmap value) (ADCYAP1R1): 0.214; GPCR activation (heatmap value) (SUCNR1): 0.1336; GPCR activation (heatmap value) (AVPR1B): 0.6298; GPCR activation (heatmap value) (GPR15): -0.8181; GPCR activation (heatmap value) (UTS2R): 0.9484; GPCR activation (heatmap value) (HCA2): 0.2197
